According to patent publication US20080161309A1, “Novel Compounds” (priority 2004, published 2008):
Where a name gives a salt, the structure may show the parent alone.

Assays:
[1] = Vapor sorption analysis of salts; assay type: physicochemical; conditions: 90% relative humidity, 25° C.; for moles water uptake per total moles of sample at 90% RH: calculated; for % mass change at 90% RH: compared to original mass of sample
Protocol: The propensity of besylate, hydrochloride, edisylate and fumarate salts of (2S)-2-[(S)-(4-chloro-2-methoxyphenoxy)(phenyl)methyl]morpholine to absorb water vapor was studied at various relative humidities (RH). The besylate, hydrochloride, and edisylate salts were analysed using a VTI Corporation SGA-100 Symmetric Vapor Sorption Analyzer equipped with a CI Electronics Limited, CI MK2, 1 Gram Microbalance, an EdgeTech MODEL 2000 […] DF DEWPOINT HYGROMETER, and an JULABO USA, Inc F25-HE Refrigerated and Heated Circulator. The following method was used:
The propensity of (2S)-2-[(S)-(4-chloro-2-methoxyphenoxy)(phenyl)methyl]morpholine […] to absorb water was similarly analyzed using a VTI Corporation SGA-100 Symmetric Vapor Sorption Analyzer equipped with a CAHN INSTRUMENTS INC, INC. D-200 Digital Recording Balance, an EdgeTech MODEL 2000 […] DF DEWPOINT HYGROMETER, and a JULABO USA, Inc F25-HD Refrigerated and Heated Circulator.

[2] = tested on: capsaicin-induced mechanical allodynia; experiment: Rat model of capsaicin-induced mechanical allodynia; assay type: in vivo; conditions: sc, male Sprague-Dawley rats, 10 mg/kg subcutaneously, PWT 1 hour after single dose, mean of eight animals, normalized for vehicle, read-out: % Inhibition of allodynia
Protocol: Compounds of the present invention may be assayed for their ability to treat fibromylagia—like pain in a rat model of capsaicin-induced mechanical allodynia (e.g., Sluka, K A, (2002) J of Neuroscience, 22(13): 5687-5693). For example, a rat model of capsaicin-induced mechanical allodynia) was be carried out as follows:
On day 0, male Sprague-Dawley rats (˜150 g) in the dark cycle were placed in suspended wire-bottom cages and allowed to acclimate for 0.5 hour in a darkened, quiet room. The day 0 paw withdrawal threshold (PWT) was determined on the left hind paw by Von Frey hair assessment using the Dixon up and down method. After assessment, the plantar muscle of the right hind paw was injected with 100 μl capsaicin (0.25% (w/v) in 10% ethanol, 10% Tween 80, in sterile saline). On day 6 the PWT of the left hindpaw (contralateral from injection site) was determined for each animal. Animals from the day 6 prereads with PWT≦11.7 g were considered allodynic responders and were regrouped so that each cage had similar mean PWT values. On day 7, responders were dosed subcutaneously with 10 mg compound/kg body weight, or with vehicle alone. The vehicle was phosphate buffered saline containing 2% Cremophor® EL (BASF). The contralateral PWT values were determined at 1 hour after the single dose, with the investigator blinded to the dosing scheme.
In addition, the day 6 PWT was subtracted from the day 0 PWT to give the baseline window of allodynia present in each animal.

[3] = biological target: T1, human serotonin transporter (hSERT) (Homo sapiens, UniProt P31645); experiment: hSERT receptor binding, [125I]-RTI-55, HEK-293 membranes; conditions: [125I]-RTI-55, HEK-293 membranes, Cheng-Prusoff; read-out: SERT Ki
T1 construct: expressed in transfected cells; host or cells: HEK-293, membranes
Protocol: Cell pastes of HEK-293 cells transfected with a human serotonin transporter cDNA were prepared. […] Aliquots of membranes (−2.5 mg/ml protein) were stored in liquid nitrogen until used.
The reaction was incubated and gently agitated for 90 minutes at room temperature, and terminated by removal of assay volume. […] Test compounds were run in duplicate, and specific binding was defined as the difference between binding in the presence and absence of 10 μM citalopram. Excel and GraphPad Prism software were used for data calculation and analysis. IC50 values were converted to Ki values using the Cheng-Prusoff equation.

[4] = biological target: T2, human norepinephrine transporter (hNET) (Homo sapiens, UniProt P23975); experiment: hNET receptor binding, [125I]-RTI-55, HEK-293 membranes; conditions: Cheng-Prusoff, read-out: NET Ki
T2 construct: expressed in transfected cells; host or cells: HEK-293, membranes
Protocol: Cell pastes of HEK-293 cells transfected with a human norepinephrine transporter cDNA were prepared. The cell pastes were resuspended in 400 to 700 ml of Krebs-HEPES assay buffer (25 mM HEPES, 122 mM NaCl, 3 mM KCl, 1.2 mM MgSO4, 1.3 mM CaCl2, and 11 mM glucose, pH 7.4) with a Polytron homogenizer at setting 7 for 30 seconds. Aliquots of membranes (5 mg/ml protein) were stored in liquid nitrogen until used.
The binding assay was set up in Beckman deep-well polypropylene plates with a total volume of 250 μl containing: drug (10^−5M to 10^−12M), cell membranes, and […] [^125I]-RTI-55 (Perkin Elmer, NEX-272; specific activity 2200 Ci/mmol). The reaction was incubated by gentle agitation for 90 minutes at room temperature and was terminated by filtration through Whatman GF/C filter plates using a Brandel 96-well plate harvester. Scintillation fluid (100 μl) was added to each well, and bound [^125I]-RTI-55 was determined using a Wallac Trilux Beta Plate Counter. Test compounds were run in duplicate, and specific binding was defined as the difference between binding in the presence and absence of 10 μM desipramine.
Excel and GraphPad Prism software were used for data calculation and analysis. IC50 values were converted to Ki values using the Cheng-Prusoff equation. The Ki values (nM) for the hNET are reported below in Table 1.

T2 sequence (P23975 whole entry): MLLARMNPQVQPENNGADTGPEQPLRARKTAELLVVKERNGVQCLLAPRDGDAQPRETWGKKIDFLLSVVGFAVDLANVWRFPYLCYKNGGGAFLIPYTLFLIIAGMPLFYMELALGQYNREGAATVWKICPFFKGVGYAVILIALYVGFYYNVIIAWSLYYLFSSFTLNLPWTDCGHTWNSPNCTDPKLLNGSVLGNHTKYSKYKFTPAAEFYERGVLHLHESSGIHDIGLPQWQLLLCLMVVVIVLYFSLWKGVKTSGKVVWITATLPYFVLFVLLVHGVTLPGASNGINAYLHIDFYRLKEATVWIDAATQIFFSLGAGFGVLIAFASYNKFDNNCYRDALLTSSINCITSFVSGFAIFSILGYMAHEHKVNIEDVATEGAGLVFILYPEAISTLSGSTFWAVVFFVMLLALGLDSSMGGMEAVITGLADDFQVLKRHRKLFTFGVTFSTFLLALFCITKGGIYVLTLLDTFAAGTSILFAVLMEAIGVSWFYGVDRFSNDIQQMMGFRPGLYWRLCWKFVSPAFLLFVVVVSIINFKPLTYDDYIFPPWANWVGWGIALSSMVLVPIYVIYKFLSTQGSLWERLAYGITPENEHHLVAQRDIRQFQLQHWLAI
T1 sequence (P31645 whole entry): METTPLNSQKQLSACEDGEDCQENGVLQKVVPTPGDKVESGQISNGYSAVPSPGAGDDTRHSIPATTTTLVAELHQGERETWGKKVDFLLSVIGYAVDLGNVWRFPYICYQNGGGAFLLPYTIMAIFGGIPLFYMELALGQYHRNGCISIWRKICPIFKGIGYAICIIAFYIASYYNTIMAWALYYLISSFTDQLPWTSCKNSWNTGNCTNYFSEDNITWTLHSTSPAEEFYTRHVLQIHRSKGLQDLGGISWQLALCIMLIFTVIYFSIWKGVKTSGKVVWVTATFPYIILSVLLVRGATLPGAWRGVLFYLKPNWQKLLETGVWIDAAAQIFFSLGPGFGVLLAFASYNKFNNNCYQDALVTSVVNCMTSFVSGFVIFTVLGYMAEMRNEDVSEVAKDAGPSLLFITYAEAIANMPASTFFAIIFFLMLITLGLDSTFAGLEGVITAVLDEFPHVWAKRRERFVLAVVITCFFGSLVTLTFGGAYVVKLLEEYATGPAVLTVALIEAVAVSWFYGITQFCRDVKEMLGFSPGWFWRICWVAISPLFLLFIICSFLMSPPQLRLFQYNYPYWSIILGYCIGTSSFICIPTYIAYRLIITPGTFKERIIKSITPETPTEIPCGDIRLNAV

COc1cc(Cl)ccc1OC(c1cccc(F)c1)C1CNCCO1 (centres unmarked) (as salt: camsylate) [Example 3]
melting point: 162.03 °C

FC(F)Oc1cc(Cl)ccc1OC(c1ccccc1)C1CNCCO1 (centres unmarked) (as salt: citrate) [Example 4]
melting point: 119.29 °C

Fc1c(Cl)cccc1OC(c1ccccc1)C1CNCCO1 (centres unmarked) (as salt: edisylate) [Example 8]
melting point: 189.23 °C

Fc1cccc(OC(c2ccccc2)C2CNCCO2)c1F (centres unmarked) (as salt: fumarate) [Example 6]
melting point: 119.96 °C

Fc1ccc(OC(c2ccccc2)C2CNCCO2)c(F)c1 (centres unmarked) (as salt: hydrobromid) [Example 7]
melting point: 106.48 °C

COc1cc(Cl)ccc1OC(c1ccc(F)cc1)C1CNCCO1 (centres unmarked) (as salt: hydrochloride) [Example 2]
melting point: 148.11 °C

c1ccc(C(Oc2cccc3cccnc23)C2CNCCO2)cc1 (centres unmarked) (as salt: succinate) [Example 9]
melting point: 98.24 °C

Fc1cc(Cl)ccc1OC(c1ccccc1)C1CNCCO1 (centres unmarked) (as salt: tartrate) [Example 5]
melting point: 92.68 °C

COc1cc(Cl)ccc1O[C@@H](c1ccccc1)[C@@H]1CNCCO1.Cl [Example 38, (2S)-2-[(1S)-(4-chloro-2-methoxyphenoxy) (phenyl)methyl] morpholine hydrochloride]
moles water uptake per total moles of sample at 90% RH [1]: 0.77
% mass change at 90% RH [1]: 3.8%
inhibition in vivo at 10 mg/kg [2]: 59%

Cc1ccc(Cl)c(O[C@@H](c2ccccc2)[C@@H]2CNCCO2)c1 [Example 87, (2S)-2-[(1S)-(2-Chloro-5-methylphenoxy)phenylmethyl] morpholine fumarate]
Ki [3]: 184 nM
Ki [4]: 18 nM
inhibition in vivo at 10 mg/kg [2]: 9.3%

Clc1ccc(Cl)c(O[C@@H](c2ccccc2)[C@@H]2CNCCO2)c1 [Example 89, (2S)-2-[(1S)-(2,5-Dichlorophenoxy)phenylmethyl] morpholine fumarate]
Ki [3]: 171 nM
Ki [4]: 20.3 nM
inhibition in vivo at 10 mg/kg [2]: 27.8%

COc1cc(Cl)c(Cl)cc1O[C@@H](c1ccccc1)[C@@H]1CNCCO1 [Example 93, (2S)-2-[(1S)-(4,5-Dichloro-2-methoxyphenoxy)phenylmethyl] morpholine fumarate]
Ki [3]: 70 nM
Ki [4]: 164 nM
inhibition in vivo at 10 mg/kg [2]: 39%

Fc1ccc(O[C@@H](c2cccc(Cl)c2)[C@@H]2CNCCO2)c(Cl)c1 [Example 102, (2S)-2-[(1S)-(2-Chloro-4-fluorophenoxy) (3-chlorophenyl)methyl] morpholine fumarate]
Ki [3]: 222 nM
Ki [4]: 48.3 nM
inhibition in vivo at 10 mg/kg [2]: 59.5%

Fc1ccc(O[C@@H](c2ccccn2)[C@@H]2CNCCO2)c(Cl)c1 [Example 105, (2S)-2-[(1S)-(2-chloro-4-fluorophenoxy)(pyridin-2-yl)methyl]morpholine fumarate]
Ki [3]: 621 nM
Ki [4]: 3.5 nM
inhibition in vivo at 10 mg/kg [2]: 13.7%

COc1cc(Cl)ccc1O[C@@H](c1ccccc1)[C@@H]1CNCCO1.O=S(=O)(O)c1ccccc1 [besylate, (2S)-2-[(S)-(4-chloro-2-methoxyphenoxy)(phenyl)methyl]morpholine besylate]
moles water uptake per total moles of sample at 90% RH [1]: 0.17
% mass change at 90% RH [1]: 0.64%

COc1cc(Cl)ccc1O[C@@H](c1ccccc1)[C@@H]1CNCCO1.O=C(O)/C=C/C(=O)O [fumaric, (2S)-2-[(1S)-(4-chloro-2-methoxyphenoxy) (phenyl)methyl]morpholine fumarate]
moles water uptake per total moles of sample at 90% RH [1]: 0.69
% mass change at 90% RH [1]: 2.8%

(2S)-2-[(S)-(4-chloro-2-methoxyphenoxy)(phenyl)methyl]morpholine edisylate
moles water uptake per total moles of sample at 90% RH [1]: 1.32
% mass change at 90% RH [1]: 4.6%
